PubChem BioAssay AID1919015 (Molecular Pharmacology Branch, DTP, NCI, 2023)

Tested on: OVCAR-5 complex spheroids with HUVEC/MSC, viability, % test/control
Experiment: Anticancer human tumor OVCAR-5 cell line growth inhibition [AhR];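 also: spheroids exposed to compounds for 7 days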;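 as to viability, T/C: 100% = DMSO vehicle control wells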
Conditions: for IC50: curve of first compound; for viability, T/C: stronger effect = lower value; active = viability on the fitted dose curve at most 10% of control; inactive = the rest
In short: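 Complex tumor spheroids co-cultured with HUVEC and human MSC stroma; AhR antagonists tested in combination with standard-of-care and investigational agents. Top concentration at or near clinical Cmax (else 10 microM), half-log dilutions; growth expressed as percent test/control.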

[1] = second compound 0.1 µM, first compound 0.000949 µM
[2] = second compound 0.1 µM, first compound 0.003 µM
[3] = second compound 0.1 µM, first compound 0.00949 µM
[4] = second compound 0.1 µM, first compound 0.03 µM
[5] = second compound 0.1 µM, first compound 0.0949 µM
[6] = second compound 0.1 µM, first compound 0.3 µM
[7] = second compound 0.316 µM, first compound 0.000949 µM
[8] = second compound 0.316 µM, first compound 0.003 µM
[9] = second compound 0.316 µM, first compound 0.00949 µM
[10] = second compound 0.316 µM, first compound 0.03 µM
[11] = second compound 0.316 µM, first compound 0.0949 µM
[12] = second compound 0.316 µM, first compound 0.3 µM
[13] = second compound 1 µM, first compound 0.000949 µM
[14] = second compound 1 µM, first compound 0.003 µM
[15] = second compound 1 µM, first compound 0.00949 µM
[16] = second compound 1 µM, first compound 0.03 µM
[17] = second compound 1 µM, first compound 0.0949 µM
[18] = second compound 1 µM, first compound 0.3 µM
[19] = second compound 3.16 µM, first compound 0.000949 µM
[20] = second compound 3.16 µM, first compound 0.003 µM
[21] = second compound 3.16 µM, first compound 0.00949 µM
[22] = second compound 3.16 µM, first compound 0.03 µM
[23] = second compound 3.16 µM, first compound 0.0949 µM
[24] = second compound 3.16 µM, first compound 0.3 µM
[25] = second compound 10 µM, first compound 0.000949 µM
[26] = second compound 10 µM, first compound 0.003 µM
[27] = second compound 10 µM, first compound 0.00949 µM
[28] = second compound 10 µM, first compound 0.03 µM
[29] = second compound 10 µM, first compound 0.0949 µM
[30] = second compound 10 µM, first compound 0.3 µM
[31] = second compound 0.1 µM, first compound 0.0316 µM
[32] = second compound 0.1 µM, first compound 0.1 µM
[33] = second compound 0.1 µM, first compound 0.316 µM
[34] = second compound 0.1 µM, first compound 1 µM
[35] = second compound 0.1 µM, first compound 3.16 µM
[36] = second compound 0.1 µM, first compound 10 µM
[37] = second compound 0.316 µM, first compound 0.0316 µM
[38] = second compound 0.316 µM, first compound 0.1 µM
[39] = second compound 0.316 µM, first compound 0.316 µM
[40] = second compound 0.316 µM, first compound 1 µM
[41] = second compound 0.316 µM, first compound 3.16 µM
[42] = second compound 0.316 µM, first compound 10 µM
[43] = second compound 1 µM, first compound 0.0316 µM
[44] = second compound 1 µM, first compound 0.1 µM
[45] = second compound 1 µM, first compound 0.316 µM
[46] = second compound 1 µM, first compound 1 µM
[47] = second compound 1 µM, first compound 3.16 µM
[48] = second compound 1 µM, first compound 10 µM
[49] = second compound 3.16 µM, first compound 0.0316 µM
[50] = second compound 3.16 µM, first compound 0.1 µM
[51] = second compound 3.16 µM, first compound 0.316 µM
[52] = second compound 3.16 µM, first compound 1 µM
[53] = second compound 3.16 µM, first compound 3.16 µM
[54] = second compound 3.16 µM, first compound 10 µM
[55] = second compound 10 µM, first compound 0.0316 µM
[56] = second compound 10 µM, first compound 0.1 µM
[57] = second compound 10 µM, first compound 0.316 µM
[58] = second compound 10 µM, first compound 1 µM
[59] = second compound 10 µM, first compound 3.16 µM
[60] = second compound 10 µM, first compound 10 µM

CC(C)CC(NC(=O)C(Cc1ccccc1)NC(=O)c1cnccn1)B(O)O (stereo not given) + Cc1cncc(-c2nc(NCCc3c[nH]c4ccccc34)c3ncn(C(C)C)c3n2)c1
inactive: viability, T/C [1] 96.8% | viability, T/C [2] 102% | viability, T/C [3] 102% | viability, T/C [4] 74.7% | viability, T/C [5] 32.2% | viability, T/C [6] 27.2% | viability, T/C [7] 96.3% | viability, T/C [8] 100% | viability, T/C [9] 101% | viability, T/C [10] 72.1% | viability, T/C [11] 33.2% | viability, T/C [12] 23.6% | viability, T/C [13] 96.7% | viability, T/C [14] 95% | viability, T/C [15] 96.6% | viability, T/C [16] 68.2% | viability, T/C [17] 33.6% | viability, T/C [18] 25% | viability, T/C [19] 82.9% | viability, T/C [20] 76.3% | viability, T/C [21] 75.9% | viability, T/C [22] 59.5% | viability, T/C [23] 25.6% | viability, T/C [24] 15.4% | viability, T/C [25] 19.6% | viability, T/C [26] 24.7% | viability, T/C [27] 15%
58.1 nM: IC50 (second compound 0.1 µM)
41.1 nM: IC50 (second compound 3.16 µM)
54.6 nM: IC50 (second compound 1 µM)
57.2 nM: IC50 (second compound 0.316 µM)
< 0.949 nM: IC50 (second compound 10 µM)
active: viability, T/C [28] 1.7% | viability, T/C [29] 0.78% | viability, T/C [30] 0.54%

CCc1c2c(nc3ccc(O)cc13)-c1cc3c(c(=O)n1C2)COC(=O)[C@]3(O)CC + Cc1cncc(-c2nc(NCCc3c[nH]c4ccccc34)c3ncn(C(C)C)c3n2)c1
active: viability, T/C [24] 8.5% | viability, T/C [25] 4.99% | viability, T/C [26] 5.37% | viability, T/C [27] 9.12% | viability, T/C [28] 7.96% | viability, T/C [29] 4.98% | viability, T/C [30] 2.23%
< 0.949 nM: IC50 (second compound 10 µM)
inactive: viability, T/C [1] 83.8% | viability, T/C [2] 59% | viability, T/C [3] 46.3% | viability, T/C [4] 44.8% | viability, T/C [5] 23.4% | viability, T/C [6] 9.85% | viability, T/C [7] 80.1% | viability, T/C [8] 57.1% | viability, T/C [9] 47.4% | viability, T/C [10] 42.3% | viability, T/C [11] 22.8% | viability, T/C [12] 9.22% | viability, T/C [13] 73.1% | viability, T/C [14] 51.4% | viability, T/C [15] 50.7% | viability, T/C [16] 42.3% | viability, T/C [17] 21.5% | viability, T/C [18] 9.57% | viability, T/C [19] 56.8% | viability, T/C [20] 43.8% | viability, T/C [21] 48.4% | viability, T/C [22] 40.2% | viability, T/C [23] 21.9%
3.77 nM: IC50 (second compound 3.16 µM)
9.09 nM: IC50 (second compound 0.316 µM)
9.8 nM: IC50 (second compound 0.1 µM)
8.08 nM: IC50 (second compound 1 µM)

Nc1ccccc1NC(=O)c1ccc(CNC(=O)OCc2cccnc2)cc1 + Cc1cncc(-c2nc(NCCc3c[nH]c4ccccc34)c3ncn(C(C)C)c3n2)c1
active: viability, T/C [36] 9.54% | viability, T/C [42] 7.96% | viability, T/C [48] 7.92% | viability, T/C [54] 6.41% | viability, T/C [57] 13.1% | viability, T/C [58] 14.3% | viability, T/C [59] 2.83% | viability, T/C [60] 0.51%
724 nM: IC50 (second compound 1 µM)
< 31.6 nM: IC50 (second compound 10 µM)
834 nM: IC50 (second compound 0.1 µM)
731 nM: IC50 (second compound 0.316 µM)
549 nM: IC50 (second compound 3.16 µM)
inactive: viability, T/C [31] 86% | viability, T/C [32] 84.7% | viability, T/C [33] 69.5% | viability, T/C [34] 47.4% | viability, T/C [35] 19.9% | viability, T/C [37] 86% | viability, T/C [38] 79.5% | viability, T/C [39] 66.8% | viability, T/C [40] 44.3% | viability, T/C [41] 20.1% | viability, T/C [43] 80.4% | viability, T/C [44] 77.2% | viability, T/C [45] 68.8% | viability, T/C [46] 42.8% | viability, T/C [47] 16.6% | viability, T/C [49] 71.2% | viability, T/C [50] 71.4% | viability, T/C [51] 62.7% | viability, T/C [52] 36% | viability, T/C [53] 13.5% | viability, T/C [55] 10.4% | viability, T/C [56] 10.3%

Nc1ccn(C2OC(CO)C(O)C2(F)F)c(=O)n1 (stereo not given) + Cc1cncc(-c2nc(NCCc3c[nH]c4ccccc34)c3ncn(C(C)C)c3n2)c1
active: viability, T/C [55] 3.2% | viability, T/C [56] 3.6% | viability, T/C [57] 4.58% | viability, T/C [58] 4.3% | viability, T/C [59] 6.36% | viability, T/C [60] 9.03%
< 31.6 nM: IC50 (second compound 0.1 µM) | IC50 (second compound 0.316 µM) | IC50 (second compound 1 µM) | IC50 (second compound 3.16 µM) | IC50 (second compound 10 µM)
inactive: viability, T/C [31] 33.2% | viability, T/C [32] 30.1% | viability, T/C [33] 31.2% | viability, T/C [34] 33% | viability, T/C [35] 33% | viability, T/C [36] 31.6% | viability, T/C [37] 33.6% | viability, T/C [38] 30.9% | viability, T/C [39] 32% | viability, T/C [40] 32% | viability, T/C [41] 32.2% | viability, T/C [42] 31.6% | viability, T/C [43] 33.6% | viability, T/C [44] 31.5% | viability, T/C [45] 34.1% | viability, T/C [46] 33% | viability, T/C [47] 34.9% | viability, T/C [48] 32% | viability, T/C [49] 33.6% | viability, T/C [50] 33.4% | viability, T/C [51] 32% | viability, T/C [52] 32.5% | viability, T/C [53] 35% | viability, T/C [54] 34.4%

O=C(C=Cc1cccc(S(=O)(=O)Nc2ccccc2)c1)NO + Cc1cncc(-c2nc(NCCc3c[nH]c4ccccc34)c3ncn(C(C)C)c3n2)c1
1010 nM: IC50 (second compound 0.316 µM)
1130 nM: IC50 (second compound 0.1 µM) | IC50 (second compound 1 µM)
inactive: viability, T/C [31] 95.8% | viability, T/C [32] 87.4% | viability, T/C [33] 70.6% | viability, T/C [34] 52.4% | viability, T/C [35] 30.4% | viability, T/C [37] 95.1% | viability, T/C [38] 88.1% | viability, T/C [39] 70.2% | viability, T/C [40] 52.1% | viability, T/C [41] 24.9% | viability, T/C [43] 87.9% | viability, T/C [44] 88.3% | viability, T/C [45] 70% | viability, T/C [46] 55.3% | viability, T/C [47] 25.1% | viability, T/C [49] 79.4% | viability, T/C [50] 75.8% | viability, T/C [51] 66% | viability, T/C [52] 49% | viability, T/C [53] 23.1% | viability, T/C [55] 23.3% | viability, T/C [56] 26.7% | viability, T/C [57] 23.4% | viability, T/C [58] 24.9% | viability, T/C [59] 16.4% | viability, T/C [60] 2.82%
active: viability, T/C [36] 7.81% | viability, T/C [42] 6.95% | viability, T/C [48] 6.35% | viability, T/C [54] 5.52%
891 nM: IC50 (second compound 3.16 µM)
< 31.6 nM: IC50 (second compound 10 µM)

O=C(c1cc(Cc2n[nH]c(=O)c3ccccc23)ccc1F)N1CCN(C(=O)C2CC2)CC1 + Cc1cncc(-c2nc(NCCc3c[nH]c4ccccc34)c3ncn(C(C)C)c3n2)c1
> 10000 nM: IC50 (second compound 0.1 µM) | IC50 (second compound 0.316 µM) | IC50 (second compound 1 µM) | IC50 (second compound 3.16 µM)
inactive: viability, T/C [31] 93.8% | viability, T/C [32] 97.7% | viability, T/C [33] 93.7% | viability, T/C [34] 87.5% | viability, T/C [35] 91.5% | viability, T/C [36] 86.8% | viability, T/C [37] 93.9% | viability, T/C [38] 98.7% | viability, T/C [39] 95.4% | viability, T/C [40] 89.9% | viability, T/C [41] 84.3% | viability, T/C [42] 83.7% | viability, T/C [43] 84.5% | viability, T/C [44] 87.7% | viability, T/C [45] 91.6% | viability, T/C [46] 87% | viability, T/C [47] 86.2% | viability, T/C [48] 77.3% | viability, T/C [49] 78.2% | viability, T/C [50] 77.8% | viability, T/C [51] 75.2% | viability, T/C [52] 73.2% | viability, T/C [53] 71.8% | viability, T/C [54] 64.8% | viability, T/C [55] 14.8% | viability, T/C [56] 12.9% | viability, T/C [57] 15% | viability, T/C [58] 12% | viability, T/C [59] 13.7% | viability, T/C [60] 13.1%
< 31.6 nM: IC50 (second compound 10 µM)
